Cc1onc(-c2c(Cl)cccc2Cl)c1C(=O)N[C@@H]1C(=O)N2[C@@H]1SC(C)(C)[C@@H]2C(=O)[O-].O.[Na+]
solubility (mole fraction)
Settings | 288.15 K | 293.15 K | 298.15 K | 303.15 K | 308.15 K | 313.15 K | 318.15 K
in acetone | 0.000605 | 0.000795 | 0.00101 | 0.00128 | 0.00161 | 0.00198 | 0.00244
in acetonitrile | 0.000144 | 0.000155 | 0.000174 | 0.000184 | 0.000209 | 0.000221 | 0.000246
in ethanol | 0.00146 | 0.00167 | 0.00187 | 0.00211 | 0.00237 | 0.00267 | 0.00292
in ethyl acetate | 0.000548 | 0.000686 | 0.000843 | 0.001 | 0.00123 | 0.00149 | 0.00178
in isopropanol | 0.000409 | 0.000524 | 0.000618 | 0.000683 | 0.000854 | 0.000958 | 0.00118
in methanol | 0.0418 | 0.0476 | 0.0536 | 0.06 | 0.0657 | 0.0768 | 0.0853

Source: BigSolDB 2.1
